The record followed here is patent US12391679B2, “Benzamide-substituted bicyclic imidazo- and pyrazolo-fused -pyridine, -pyrimide, and -pyridazine compounds for treatment of inflammatory diseases” (ONCO3R Therapeutics BV, priority 2019, dated 2025).

pEC50, pIC50: −log10 of the molar value. Where only a bound is given, the exact number is not on record here.

Assay [1] has as its target T1, SIK1 (Homo sapiens, UniProt P57059).
T1 construct: purchased Carna Biosciences 02-131
The experiment in a line: ADP-Glo kinase assay, SIK1. It counts as biochemical. The procedure, abridged:
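Luminescent ADP-formation read-out: enzyme–substrate mix + ATP, 120 min RT; ATP depletion 40 min RT; ADP→ATP conversion with luciferase/luciferin 30 min RT. Controls: 1% DMSO (negative), 10 μM staurosporine final (positive).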

Assay [2] concerns LPS-induced TNFα in monocyte-derived macrophages. The experiment in a line: MdM assay: LPS-triggered TNFα (ELISA). Particulars: Macrophage; human MdM; LPS 200 ng/mL; supernatant after 20 h; inhibition of TNFα; read-out: TNFα EC50. Format: cell-based, human. Summed up:
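TNFα secretion quantified by streptavidin-HRP/luminol sandwich ELISA in supernatants collected 20 h after LPS (200 ng/mL). Macrophages derived from magnetically isolated human CD14+ monocytes were used at day 10, with compound added 1 h before LPS; final DMSO 0.2%.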

T1 sequence (P57059 whole entry): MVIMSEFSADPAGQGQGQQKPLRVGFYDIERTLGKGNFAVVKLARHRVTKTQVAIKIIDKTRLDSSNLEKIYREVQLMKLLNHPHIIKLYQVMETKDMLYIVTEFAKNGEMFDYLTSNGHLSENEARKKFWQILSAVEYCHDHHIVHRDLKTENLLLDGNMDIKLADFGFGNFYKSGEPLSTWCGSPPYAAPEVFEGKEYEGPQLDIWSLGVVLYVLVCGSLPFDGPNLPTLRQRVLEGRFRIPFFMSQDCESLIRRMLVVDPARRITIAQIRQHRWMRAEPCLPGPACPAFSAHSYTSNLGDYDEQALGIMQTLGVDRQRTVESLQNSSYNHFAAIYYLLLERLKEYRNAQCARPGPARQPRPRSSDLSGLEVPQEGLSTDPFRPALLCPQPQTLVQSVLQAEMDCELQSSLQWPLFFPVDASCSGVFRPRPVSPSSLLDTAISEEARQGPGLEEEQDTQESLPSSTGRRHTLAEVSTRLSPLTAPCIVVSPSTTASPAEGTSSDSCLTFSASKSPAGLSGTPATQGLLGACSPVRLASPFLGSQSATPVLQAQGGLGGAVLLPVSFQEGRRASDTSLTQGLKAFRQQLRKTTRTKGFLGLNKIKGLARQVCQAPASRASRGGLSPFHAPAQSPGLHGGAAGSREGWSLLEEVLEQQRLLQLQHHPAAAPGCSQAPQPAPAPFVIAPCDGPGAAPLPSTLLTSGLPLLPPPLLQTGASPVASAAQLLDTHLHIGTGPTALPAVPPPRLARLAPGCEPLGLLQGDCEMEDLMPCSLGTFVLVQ

A word on the pIC50: it is the negative decadic logarithm of the IC50, by convention in mol/L. As usually defined, the pEC50 is the negative decadic logarithm of the EC50, by convention in mol/L. Molecule `COc1cc(-c2cnc3cc(C(O)CC#N)ccn23)cc(OC(F)F)c1C(=O)NC1CC1` (stereo not shown) [Cpd 175, 4-[7-(2-cyano-1-hydroxy-ethyl)imidazo[1,2-a]pyridin-3-yl]-N-cyclopropyl-2-(difluoromethoxy)-6-methoxy-benzamide] showed a pIC50 in assay [1] of less than 6.30. The pEC50 in assay [2] was 5.30 to 6.00.
The corresponding values for `COc1cc(-c2cnc3cc(C(C)(C#N)CO)ccn23)cc(OC(F)F)c1C(=O)NC1CC1` (stereo not shown) [Cpd 176, 4-[7-(1-cyano-2-hydroxy-1-methyl-ethyl)imidazo[1,2-a]pyridin-3-yl]-N-cyclopropyl-2-(difluoromethoxy)-6-methoxy-benzamide] are less than 6.30 and 5.30 to 6.00.
The corresponding values for `COc1cc(-c2cnc3cc(C4COCCN4C)ccn23)cc(OC(F)F)c1C(=O)NC1CC1` (stereo not shown) [Cpd 193, N-cyclopropyl-2-(difluoromethoxy)-6-methoxy-4-[7-(4-methylmorpholin-3-yl)imidazo[1,2-a]pyridin-3-yl]benzamide] are less than 6.30 and 5.30 to 6.00.
In turn, `COCC(C)(C#N)c1ccn2c(-c3cc(OC)c(C(=O)NC4CC4)c(OC(F)F)c3)cnc2c1` (stereo not shown) [Cpd 195, 4-[7-(1-cyano-2-methoxy-1-methyl-ethyl)imidazo[1,2-a]pyridin-3-yl]-N-cyclopropyl-2-(difluoromethoxy)-6-methoxy-benzamide] had a pIC50 in assay [1] of less than 6.30. Also, in assay [2], the pEC50 is 6.00 to 7.00.
The corresponding values for `COc1cc(-c2cnc3cc(C4(O)CCC4)ccn23)cc(OC(F)F)c1C(=O)N[C@@H]1C[C@@H]1F` [Cpd 205, 2-(difluoromethoxy)-N-[(1R,2S)-2-fluorocyclopropyl]-4-[7-(1-hydroxycyclobutyl)imidazo[1,2-a]pyridin-3-yl]-6-methoxy-benzamide] are less than 6.30 and 6.00 to 7.00.
In assay [1], `COc1cc(-c2cnc3cc(C4COC4)ccn23)cc(OC(F)F)c1C(=O)N[C@@H]1C[C@@H]1F` [Cpd 206, 2-(difluoromethoxy)-N-[(1R,2S)-2-fluorocyclopropyl]-6-methoxy-4-[7-(oxetan-3-yl)imidazo[1,2-a]pyridin-3-yl]benzamide] showed a pIC50 of 6.30 to 7.00. The pEC50 in assay [2] is 6.00 to 7.00.
On the same counts, the results for `COc1cc(-c2cnc3cc(C4(F)COC4)ccn23)cc(OC(F)F)c1C(=O)NC1CC1` [Cpd 207, N-cyclopropyl-2-(difluoromethoxy)-4-[7-(3-fluorooxetan-3-yl)imidazo[1,2-a]pyridin-3-yl]-6-methoxy-benzamide] are less than 6.30 and 6.00 to 7.00.
In assay [1], `COc1cc(-c2cnn3cc(C(C)(C)C#N)ccc23)cc(OC(F)F)c1C(=O)NC1CC1` [Cpd 208, 4-[6-(1-cyano-1-methyl-ethyl)pyrazolo[1,5-a]pyridin-3-yl]-N-cyclopropyl-2-(difluoromethoxy)-6-methoxy-benzamide] showed a pIC50 of less than 6.30. For the same molecule, the pEC50 in assay [2] is 6.00 to 7.00.
On the same counts, the results for `COc1cc(-c2cnc3cc(C(C)(C)O)ccn23)cc(OC(F)F)c1C(=O)N[C@@H]1C[C@@H]1F` [Cpd 211, 2-(difluoromethoxy)-N-[(1R,2S)-2-fluorocyclopropyl]-4-[7-(1-hydroxy-1-methyl-ethyl)imidazo[1,2-a]pyridin-3-yl]-6-methoxy-benzamide] are less than 6.30 and 6.00 to 7.00.
On the same counts, the results for `COc1cc(-c2cnn3cc(C4COC4)ccc23)cc(OC(F)F)c1C(=O)NC1CC1` [Cpd 216, N-cyclopropyl-2-(difluoromethoxy)-6-methoxy-4-[6-(oxetan-3-yl)pyrazolo[1,5-a]pyridin-3-yl]benzamide] are 6.30 to 7.00 and 6.00 to 7.00.
In assay [1], `COc1cc(-c2cnn3cc(C4COC4)ccc23)cc(OC(F)F)c1C(=O)N[C@@H]1C[C@@H]1F` [Cpd 218, 2-(difluoromethoxy)-N-[(1R,2S)-2-fluorocyclopropyl]-6-methoxy-4-[6-(oxetan-3-yl)pyrazolo[1,5-a]pyridin-3-yl]benzamide] had a pIC50 of 6.30 to 7.00. Moreover, in assay [2], the negative-log EC50 (pEC50) was 6.00 to 7.00.
The corresponding values for `COc1cc(-c2cnc3cc(C4(F)COC4)ccn23)cc(OC(F)F)c1C(=O)N[C@@H]1C[C@@H]1F` [Cpd 224, 2-(difluoromethoxy)-N-[(1R,2S)-2-fluorocyclopropyl]-4-[7-(3-fluorooxetan-3-yl)imidazo[1,2-a]pyridin-3-yl]-6-methoxy-benzamide] are 6.30 to 7.00 and 6.00 to 7.00.
In the case of `COc1cc(-c2cnn3cc(C(C)(C)O)ccc23)cc(OC(F)F)c1C(=O)N[C@@H]1C[C@@H]1F` [Cpd 227, 2-(difluoromethoxy)-N-[(1R,2S)-2-fluorocyclopropyl]-4-[6-(1-hydroxy-1-methyl-ethyl)pyrazolo[1,5-a]pyridin-3-yl]-6-methoxy-benzamide], in assay [1], the pIC50 is less than 6.30. Besides, the pEC50 in assay [2] is 6.00 to 7.00.
On the same counts, the results for `COc1cc(-c2cnc3cc(C(C)(C)C#N)cnn23)cc(OC(F)F)c1C(=O)N[C@@H]1C[C@@H]1F` [Cpd 228, 4-[7-(1-cyano-1-methyl-ethyl)imidazo[1,2-b]pyridazin-3-yl]-2-(difluoromethoxy)-N-[(1R,2S)-2-fluorocyclopropyl]-6-methoxy-benzamide] are less than 6.30 and 6.00 to 7.00.
For the molecule `COc1cc(-c2cnn3cc(C(C)(C)C#N)cnc23)cc(OC(F)F)c1C(=O)N[C@@H]1C[C@@H]1F` [Cpd 231, 4-[6-(1-cyano-1-methyl-ethyl)pyrazolo[1,5-a]pyrimidin-3-yl]-2-(difluoromethoxy)-N-[(1R,2S)-2-fluorocyclopropyl]-6-methoxy-benzamide], in assay [1], the pIC50 was less than 6.30. Further, the pEC50 in assay [2] was 6.00 to 7.00.
`COc1cc(-c2cnn3cc(C4COCCO4)ccc23)cc(OC(F)F)c1C(=O)NC1CC1` (stereo not shown) [Cpd 232, N-cyclopropyl-2-(difluoromethoxy)-4-[6-(1,4-dioxan-2-yl)pyrazolo[1,5-a]pyridin-3-yl]-6-methoxy-benzamide] gave a pIC50 in assay [1] of less than 6.30. Further, in assay [2], the pEC50 is 6.00 to 7.00.
For the molecule `COc1cc(-c2cnn3cc(C4(C#N)CC4)ccc23)cc(OC(F)F)c1C(=O)N[C@@H]1C[C@@H]1F` [Cpd 235, 4-[6-(1-cyanocyclopropyl)pyrazolo[1,5-a]pyridin-3-yl]-2-(difluoromethoxy)-N-[(1R,2S)-2-fluorocyclopropyl]-6-methoxy-benzamide], in assay [1], the pIC50 is 6.30 to 7.00. In assay [2], the negative logarithm of the EC50 (pEC50) was 6.00 to 7.00.
`COc1cc(-c2cnn3cc(C(C)(C)CO)ccc23)cc(OC(F)F)c1C(=O)NC1CC1` [Cpd 236, N-cyclopropyl-2-(difluoromethoxy)-4-[6-(2-hydroxy-1,1-dimethyl-ethyl)pyrazolo[1,5-a]pyridin-3-yl]-6-methoxy-benzamide] gave a pIC50 in assay [1] of less than 6.30. In assay [2], the pEC50 is 6.00 to 7.00.
On to `COc1cc(-c2cnn3cc(C4(C#N)CCOCC4)ccc23)cc(OC(F)F)c1C(=O)NC1CC1` [Cpd 237, 4-[6-(4-cyanotetrahydropyran-4-yl)pyrazolo[1,5-a]pyridin-3-yl]-N-cyclopropyl-2-(difluoromethoxy)-6-methoxy-benzamide], for which the pIC50 in assay [1] is less than 6.30. In addition, the pEC50 in assay [2] is 5.30 to 6.00.
Take `COc1cc(-c2cnn3cc(C(C)(C)CO)ccc23)cc(OC(F)F)c1C(=O)N[C@@H]1C[C@@H]1F` [Cpd 242, 2-(difluoromethoxy)-N-[(1R,2S)-2-fluorocyclopropyl]-4-[6-(2-hydroxy-1,1-dimethyl-ethyl)pyrazolo[1,5-a]pyridin-3-yl]-6-methoxy-benzamide]: the pIC50 in assay [1] is less than 6.30. In addition, the pEC50 in assay [2] was 6.00 to 7.00.
The corresponding values for `COc1cc(-c2cnn3cc(C4(C#N)CCOCC4)ccc23)cc(OC(F)F)c1C(=O)N[C@@H]1C[C@@H]1F` [Cpd 243, 4-[6-(4-cyanotetrahydropyran-4-yl)pyrazolo[1,5-a]pyridin-3-yl]-2-(difluoromethoxy)-N-[(1R,2S)-2-fluorocyclopropyl]-6-methoxy-benzamide] are less than 6.30 and 6.00 to 7.00.
In assay [1], `COc1cc(-c2cnn3cc(C(C)(C)C#N)ccc23)cc(OC)c1C(=O)N[C@@H]1C[C@@H]1F` [Cpd 245, 4-[6-(1-cyano-1-methyl-ethyl)pyrazolo[1,5-a]pyridin-3-yl]-N-[(1R,2S)-2-fluorocyclopropyl]-2,6-dimethoxy-benzamide] had a pIC50 of less than 6.30. Further, the pEC50 in assay [2] was 6.00 to 7.00.
On the same counts, the results for `COc1cc(-c2cnn3cc(C4(C(N)=O)CCC4)ccc23)cc(OC(F)F)c1C(=O)N[C@@H]1C[C@@H]1F` [Cpd 254, 4-[6-(1-carbamoylcyclobutyl)pyrazolo[1,5-a]pyridin-3-yl]-2-(difluoromethoxy)-N-[(1R,2S)-2-fluorocyclopropyl]-6-methoxy-benzamide] are less than 6.30 and 5.30 to 6.00.
Regarding `COc1cc(-c2cnn3cc(C(C)(C)N)ccc23)cc(OC(F)F)c1C(=O)N[C@@H]1C[C@@H]1F` [Cpd 256, 4-[6-(1-amino-1-methyl-ethyl)pyrazolo[1,5-a]pyridin-3-yl]-2-(difluoromethoxy)-N-[(1R,2S)-2-fluorocyclopropyl]-6-methoxy-benzamide], the pIC50 in assay [1] is less than 6.30. Besides, the pEC50 in assay [2] was 5.30 to 6.00.
On to `COc1cc(-c2cnn3cc(C4(N)CCC4)ccc23)cc(OC(F)F)c1C(=O)N[C@@H]1C[C@@H]1F` [Cpd 261, 4-[6-(1-aminocyclobutyl)pyrazolo[1,5-a]pyridin-3-yl]-2-(difluoromethoxy)-N-[(1R,2S)-2-fluorocyclopropyl]-6-methoxy-benzamide], for which, in assay [1], the pIC50 is less than 6.30. In assay [2], the pEC50 was 5.30 to 6.00.
The corresponding values for `COc1cc(-c2cnn3cc(C4(O)CCC4)ccc23)cc(OC(F)F)c1C(=O)N[C@@H]1C[C@@H]1F` [Cpd 266, 2-(difluoromethoxy)-N-[(1R,2S)-2-fluorocyclopropyl]-4-[6-(1-hydroxycyclobutyl)pyrazolo[1,5-a]pyridin-3-yl]-6-methoxy-benzamide] are less than 6.30 and 6.00 to 7.00.
